Reference: patent US11548911B2, “Cleavable linker for peptide synthesis” (ROCHE SEQUENCING SOLUTIONS, INC., priority 2018, dated 2023)
Non-standard residues stand in square brackets, D forms with d. Residues, ends and D or L forms follow the SMILES beside them. Aha = [N-]=[N+]=NCC[C@H](N)C(=O)O

Assay: Water solubility of hydrophobic peptide and its linker cleavage fragments
Type: physicochemical
Method: In order to enhance solubility of this peptide a variant was prepared in which a cleavable N-terminal poly-lysine tag was synthesized after the peptide sequence and incorporated cleavable linker 1: H-KKKKK—(linker 1) AhaGISFSIRFAIWIRFG-NH2 (10) (SEQ. ID. No: 3). Synthesis and purification of this modified peptide proceeded smoothly according to example 3 (FIG. 2B). Pure peptide 10 was dissolved in a 0.05 M aqueous NaHCO3 solution and shaken for 2 h at r.t. (FIG. 2A). The cleavage reaction released the two peptides 11 and 12: While the poly-lysine tag 11 is water soluble, peptide 12 precipitated under the reaction conditions and could be easily isolated in high purity by centrifugation. • FIG. 2B: LC-MS of H-KKKKK (linker 1)-AhaGISFSIRFAIWIRFG-NH2 (10), MS (ESI): 545.4 [M+5H]^5+, 681.6 [M+4H]^4+, 908.3 [M+3H]^3+, 1362.0 [M+2H]^2+. • FIG. 2C: MS (ESI) of insoluble peptide 12 (MS (ESI): 661.5 [M+3H]^3+, 991.3 [M+2H]^2+, 1322.0 […], 1983.1 [M+H]^+).

Structure (SMILES): CC[C@H](C)[C@H](NC(=O)CNC(=O)[C@@H](N)CCN=[N+]=[N-])C(=O)N[C@@H](CO)C(=O)N[C@@H](Cc1ccccc1)C(=O)N[C@@H](CO)C(=O)N[C@H](C(=O)N[C@@H](CCCNC(=N)N)C(=O)N[C@@H](Cc1ccccc1)C(=O)N[C@@H](C)C(=O)N[C@H](C(=O)N[C@@H](Cc1c[nH]c2ccccc12)C(=O)N[C@H](C(=O)N[C@@H](CCCNC(=N)N)C(=O)N[C@@H](Cc1ccccc1)C(=O)NCC(N)=O)[C@@H](C)CC)[C@@H](C)CC)[C@@H](C)CC [H-AhaGISFSIRFAIWIRFG-NH2] (H-[Aha]GISFSIRFAIWIRFG-NH2)
- solubility in water: insoluble in water
